Laboratory results reported in ChEMBL document CHEMBL1201862, “PubChem BioAssay data set” (2004).
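Protocol summary: plate cells (96-well), add compound at 5 concentrations, incubate 48 h, interpolate endpoints linearly. GI50 marks 50% less growth.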 Activity calls are given as the source filed them. Rule as the data show it: active = GI50 up to about 1.1 µM and inactive = higher.

Columns and labels:
Assay in all cases: inhibition of tumour cell growth, NCI panel, 48 h
[1] = tested on: SF-539
[2] = tested on: SW-620
[3] = tested on: SF-268
[4] = tested on: OVCAR-8
[5] = tested on: A498
[6] = tested on: MOLT-4
[7] = tested on: LOX IMVI
[8] = tested on: TK-10
[9] = tested on: RPMI-8226
[10] = tested on: HCC 2998
[11] = tested on: CAKI-1
[12] = tested on: HOP-92
[13] = tested on: MCF7
[14] = tested on: NCI-H522
[15] = tested on: HCT-116
[16] = tested on: IGROV-1
[17] = tested on: UACC-62
[18] = tested on: U-251
[19] = tested on: K562
[20] = tested on: MDA-N

| SMILES | GI50 [1] | GI50 [2] | GI50 [3] | GI50 [4] | GI50 [5] | GI50 [6] | GI50 [7] | GI50 [8] | GI50 [9] | GI50 [10] | GI50 [11] | GI50 [12] | GI50 [13] | GI50 [14] | GI50 [15] | GI50 [16] | GI50 [17] | GI50 [18] | GI50 [19] | GI50 [20] |
| --- | --- | --- | --- | --- | --- | --- | --- | --- | --- | --- | --- | --- | --- | --- | --- | --- | --- | --- | --- | --- |
| CN(C)CN1C(=O)S/C(=C2\C(=O)N(CN(C)C)c3ccccc32)C1=O | 40.6 µM (inactive) | 30.6 µM (inactive) | 32.8 µM (inactive) | 46.6 µM (inactive) | > 100 µM (inactive) | < 0.01 µM (active) | 21.2 µM (inactive) | 46.3 µM (inactive) | 18 µM (inactive) | 26.8 µM (inactive) | 32 µM (inactive) | > 100 µM (inactive) | 38.5 µM (inactive) | 36.5 µM (inactive) | 39.8 µM (inactive) | 57.5 µM (inactive) | 65.3 µM (inactive) | 40.6 µM (inactive) | – | – |
| COc1ccc(SS(=O)(=O)c2ccc(OC)cc2)cc1 | 18.8 µM (inactive) | 3.69 µM (inactive) | 17.4 µM (inactive) | 16.6 µM (inactive) | 17.2 µM (inactive) | 13.2 µM (inactive) | 17.5 µM (inactive) | 23.3 µM (inactive) | 27.5 µM (inactive) | 13.6 µM (inactive) | 22.5 µM (inactive) | 35.9 µM (inactive) | – | 15.3 µM (inactive) | 16.1 µM (inactive) | 10 µM (inactive) | 20 µM (inactive) | 14.2 µM (inactive) | 21.7 µM (inactive) | – |
| O=C(/C=C/c1ccc(Cl)cc1)c1ccccc(=O)c1O | 2.32 µM (inactive) | 4.38 µM (inactive) | 3.12 µM (inactive) | 0.698 µM (active) | 2.84 µM (inactive) | 0.798 µM (active) | 1.29 µM (inactive) | 4.55 µM (inactive) | 1.07 µM (active) | 0.579 µM (active) | 0.614 µM (active) | 3.54 µM (inactive) | 2.43 µM (inactive) | 5.42 µM (inactive) | 0.957 µM (active) | 1.82 µM (inactive) | 1.14 µM (inactive) | 2.26 µM (inactive) | 1.17 µM (inactive) | – |
| Cc1nc2cn3c(c2c(=O)[nH]1)CCCCC3 | > 100 µM (inactive) | > 100 µM (inactive) | > 100 µM (inactive) | > 100 µM (inactive) | > 100 µM (inactive) | > 100 µM (inactive) | > 100 µM (inactive) | > 100 µM (inactive) | > 100 µM (inactive) | > 100 µM (inactive) | > 100 µM (inactive) | > 100 µM (inactive) | > 100 µM (inactive) | – | > 100 µM (inactive) | > 100 µM (inactive) | > 100 µM (inactive) | > 100 µM (inactive) | > 100 µM (inactive) | – |
| O=C(Cn1c2ccc(Br)cc2c2nc3ccccc3nc21)Nc1ccccc1 | – | 24.8 µM (inactive) | 45.2 µM (inactive) | 15.1 µM (inactive) | 34 µM (inactive) | > 100 µM (inactive) | 15.8 µM (inactive) | 27.7 µM (inactive) | 37.7 µM (inactive) | 34.8 µM (inactive) | 26.8 µM (inactive) | 14.1 µM (inactive) | – | 21.6 µM (inactive) | 14.5 µM (inactive) | 15.3 µM (inactive) | 48.1 µM (inactive) | 24 µM (inactive) | 38.8 µM (inactive) | 37.7 µM (inactive) |
| Oc1ccc2ccccc2c1/N=N/c1ccc(Br)cc1 | – | > 100 µM (inactive) | 23.6 µM (inactive) | > 100 µM (inactive) | – | > 100 µM (inactive) | > 100 µM (inactive) | 59.6 µM (inactive) | > 100 µM (inactive) | – | > 100 µM (inactive) | 35.3 µM (inactive) | – | > 100 µM (inactive) | > 100 µM (inactive) | 36.1 µM (inactive) | > 100 µM (inactive) | > 100 µM (inactive) | > 100 µM (inactive) | > 100 µM (inactive) |
| Cc1cc2nnn(C3CCCCO3)c2cc1C (configuration not stated) | > 100 µM (inactive) | – | – | > 100 µM (inactive) | – | > 100 µM (inactive) | – | > 100 µM (inactive) | – | > 100 µM (inactive) | > 100 µM (inactive) | – | > 100 µM (inactive) | > 100 µM (inactive) | > 100 µM (inactive) | > 100 µM (inactive) | > 100 µM (inactive) | > 100 µM (inactive) | > 100 µM (inactive) | > 100 µM (inactive) |
| CCOC(=O)NC(=S)NC(C)c1ccccc1 (configuration not stated) | – | > 100 µM (inactive) | > 100 µM (inactive) | > 100 µM (inactive) | – | 26.4 µM (inactive) | – | > 100 µM (inactive) | 27.2 µM (inactive) | > 100 µM (inactive) | > 100 µM (inactive) | – | > 100 µM (inactive) | > 100 µM (inactive) | > 100 µM (inactive) | > 100 µM (inactive) | > 100 µM (inactive) | > 100 µM (inactive) | > 100 µM (inactive) | > 100 µM (inactive) |
| CC(OC(C)(C)C)[C@H](NC(=O)OC(C)(C)C)C(=O)O (some centres not stated) | > 100 µM (inactive) | > 100 µM (inactive) | > 100 µM (inactive) | > 100 µM (inactive) | > 100 µM (inactive) | > 100 µM (inactive) | > 100 µM (inactive) | > 100 µM (inactive) | > 100 µM (inactive) | > 100 µM (inactive) | > 100 µM (inactive) | > 100 µM (inactive) | > 100 µM (inactive) | > 100 µM (inactive) | > 100 µM (inactive) | > 100 µM (inactive) | > 100 µM (inactive) | > 100 µM (inactive) | > 100 µM (inactive) | – |
| CCOC(=O)c1c(C)nc2c(c1-c1cn(-c3ccccc3)nc1-c1ccccc1)C(=O)c1ccccc1-2 | – | > 100 µM (inactive) | > 100 µM (inactive) | > 100 µM (inactive) | > 100 µM (inactive) | > 100 µM (inactive) | > 100 µM (inactive) | > 100 µM (inactive) | – | – | > 100 µM (inactive) | > 100 µM (inactive) | – | > 100 µM (inactive) | > 100 µM (inactive) | > 100 µM (inactive) | > 100 µM (inactive) | > 100 µM (inactive) | > 100 µM (inactive) | > 100 µM (inactive) |
| CCN(CC)CCCNc1ccc([N+](=O)[O-])c2nc3ccc(OC)cc3c(N)c12 | 1.85 µM (inactive) | 1.49 µM (inactive) | 1.71 µM (inactive) | 1.95 µM (inactive) | > 10 µM (inactive) | 1.33 µM (inactive) | 1.7 µM (inactive) | > 10 µM (inactive) | 2 µM (inactive) | – | > 10 µM (inactive) | > 3.65 µM (inactive) | > 4.37 µM (inactive) | 2.82 µM (inactive) | 1.05 µM (active) | 2.58 µM (inactive) | > 10 µM (inactive) | > 10 µM (inactive) | 2.1 µM (inactive) | – |
| COc1cc2c(/C=C3/C(=O)Nc4cc(C)c(O)cc43)c(Cl)[nH]c2cc1C | 2.2 µM (inactive) | 2.83 µM (inactive) | 6.12 µM (inactive) | 3.69 µM (inactive) | 13.9 µM (inactive) | 0.148 µM (active) | 5.61 µM (inactive) | 1.9 µM (inactive) | 1.75 µM (inactive) | – | 2.55 µM (inactive) | 23 µM (inactive) | 1.8 µM (inactive) | 2.98 µM (inactive) | 2.64 µM (inactive) | 4.06 µM (inactive) | 1.96 µM (inactive) | 3.9 µM (inactive) | 0.815 µM (active) | – |
| OC[C@H]1O[C@@H]2O[C@@](COCc3ccccc3)([C@H](OCc3ccccc3)[C@H]2O)[C@@H]1OCc1ccccc1 | 17.5 µM (inactive) | 20.2 µM (inactive) | 18.1 µM (inactive) | 14.6 µM (inactive) | 18.1 µM (inactive) | 4.98 µM (inactive) | 16.7 µM (inactive) | 18.6 µM (inactive) | 13.7 µM (inactive) | – | 15.7 µM (inactive) | 11.9 µM (inactive) | 20.6 µM (inactive) | 17.3 µM (inactive) | 16.5 µM (inactive) | 13.9 µM (inactive) | 14.4 µM (inactive) | 15.7 µM (inactive) | 7.76 µM (inactive) | – |
| CC(=O)C1=C(C)N(c2ccc(C)cc2)C2(O)C=CC(=O)C3C(=O)N(c4ccccc4)C(=O)C132 (configuration not stated) | 24.4 µM (inactive) | 4.45 µM (inactive) | 31 µM (inactive) | 23.3 µM (inactive) | 20.2 µM (inactive) | – | 3.08 µM (inactive) | 18.4 µM (inactive) | 3.85 µM (inactive) | 22.5 µM (inactive) | 18.6 µM (inactive) | 16.8 µM (inactive) | 8.3 µM (inactive) | 7.89 µM (inactive) | 6.49 µM (inactive) | 8.43 µM (inactive) | 16.7 µM (inactive) | 17.7 µM (inactive) | 3.42 µM (inactive) | – |
| NC(=O)N=C(N(Cc1ccccc1)Cc1ccccc1)N(Cc1ccccc1)Cc1ccccc1 | 28.1 µM (inactive) | > 24.3 µM (inactive) | 37.2 µM (inactive) | 14.4 µM (inactive) | 39.8 µM (inactive) | > 100 µM (inactive) | 5.89 µM (inactive) | > 65.3 µM (inactive) | 8.02 µM (inactive) | 5.22 µM (inactive) | > 100 µM (inactive) | 4.3 µM (inactive) | 7.29 µM (inactive) | 6.43 µM (inactive) | 3.37 µM (inactive) | 8.97 µM (inactive) | 8.39 µM (inactive) | 7.45 µM (inactive) | > 100 µM (inactive) | – |
| CN(Cc1cnc2nc(N)nc(N)c2n1)c1ccc(C(=O)N[C@@H](CCC(=O)O)C(=O)O)cc1 [METHOTREXATE] | 0.0375 µM (active) | 0.0388 µM (active) | 0.0409 µM (active) | 0.0292 µM (active) | 4.78 µM (inactive) | 0.0326 µM (active) | 0.0274 µM (active) | 37.4 µM (inactive) | 0.0661 µM (active) | 0.119 µM (active) | 0.0614 µM (active) | 7.21 µM (inactive) | 0.0486 µM (active) | 0.25 µM (active) | 0.0347 µM (active) | 0.0908 µM (active) | 0.0286 µM (active) | 0.0723 µM (active) | 0.0285 µM (active) | – |
